The results in this text go back to US12552783B2, “Modulators of proteolysis and associated methods of use” (Arvinas Operations, Inc., priority 2018, dated 2026).

Usually Dmax stands for the largest share of the target that was removed. Higher therefore signals deep degradation.

This assay has as its target KRas (Homo sapiens, UniProt P01116, G12C). Kind of assay: KRas degradation in NCI-H2030 cells by Western blot, normalized to GAPDH (data of Table 14). In kind it is cell-based. More on the design: host or cells: NCI-H2030. The note with it: for Percent Degradation at Indicated Concentration (μM): 0.1: 0.1 μM; for Dmax: NCI-H2030. The method in brief: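 Both lines are homozygous for KRas G12C and were serum-starved for 24 h before treatment with compound at 0.3, 1 or 3 μM in 0.1% DMSO: 24 h for VHL-based compounds, 72 h for the rest. Western blot of 10 μg lysate gave KRas signal normalized to GAPDH, and percent degradation was expressed relative to the DMSO control.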

`C=CC(=O)N1CCN(c2nc(NCCC(=O)N(C)CCOCC(=O)N[C@H](C(=O)N3C[C@H](O)C[C@H]3C(=O)N[C@@H](C)c3ccc(-c4scnc4C)cc3)C(C)(C)C)nc3c(F)c(-c4cc(O)cc5ccccc45)c(Cl)cc23)CC1` [compound 191, (2S,4R)-1-((2S)-2-(2-(2-(3-((4-(4-acryloylpiperazin-1-yl)-6-chloro-8-fluoro-7-(3-hydroxynaphthalen-1-yl)quinazolin-2-yl)amino)-N-methylpropanamido)ethoxy)acetamido)-3,3-dimethylbutanoyl)-4-hydroxy-N-((S)-1-(4-(4-methylthiazol-5-yl)phenyl)ethyl)pyrrolidine-2-carboxamide]: where the note is “H2030 cells”, the “Percent Degradation at Indicated Concentration (μM): 0.1” value is listed as “C (C ≤ 35)” and the Dmax was at most 35%. Further, where the note is “H2030 cells, 0.3 μM”, the “Percent Degradation at Indicated Concentration (μM): 0.3” value (from here on “Percent Degradation … 0.3”) is “C (C ≤ 35)”. Besides, the “Percent Degradation at Indicated Concentration (μM): 1” value (“Percent Degradation … (μM): 1” below) (H2030 cells, 1 μM) is recorded as “C (C ≤ 35)”.
Consider `CCC(=O)N1CCN(c2nc(NCCC(=O)N(C)CCOCCOCCOCCOc3ccc4c(c3)C(=O)N(C3CCC(=O)NC3=O)C4=O)nc3c(F)c(-c4cc(O)cc5ccccc45)c(Cl)cc23)CC1` (stereo not shown) [compound 49, 3-((6-chloro-8-fluoro-7-(3-hydroxynaphthalen-1-yl)-4-(4-propionylpiperazin-1-yl)quinazolin-2-yl)amino)-N-(2-(2-(2-(2-((2-(2,6-dioxopiperidin-3-yl)-1,3-dioxoisoindolin-5-yl)oxy)ethoxy)ethoxy)ethoxy)ethyl)-N-methylpropanamide], for which the “Percent Degradation … 0.3” value (H2030 cells, 0.3 μM) is listed as “C (C ≤ 35)”. Further, the “Percent Degradation … (μM): 1” value (H2030 cells, 1 μM) is given as “C (C ≤ 35)”. The “Percent Degradation at Indicated Concentration (μM): 3” value (shortened to “Percent Degradation … (μM): 3”) (H2030 cells, 3 μM) is listed as “C (C ≤ 35)”. The same compound registered a Dmax (H2030 cells) of at most 35%.
With `C=CC(=O)N1CCN(c2nc(NCCC(=O)N(C)CCOCCOCC(=O)N[C@H](C(=O)N3C[C@H](O)C[C@H]3C(=O)N[C@@H](C)c3ccc(-c4scnc4C)cc3)C(C)(C)C)nc3c(F)c(-c4cc(O)cc5ccccc45)c(Cl)cc23)CC1` [compound 192, (2S,4R)-1-((2S)-15-((4-(4-acryloylpiperazin-1-yl)-6-chloro-8-fluoro-7-(3-hydroxynaphthalen-1-yl)quinazolin-2-yl)amino)-2-(tert-butyl)-12-methyl-4,13-dioxo-6,9-dioxa-3,12-diazapentadecanoyl)-4-hydroxy-N-((S)-1-(4-(4-methylthiazol-5-yl)phenyl)ethyl)pyrrolidine-2-carboxamide], for the setting “H2030 cells”, the “Percent Degradation at Indicated Concentration (μM): 0.1” value is listed as “C (C ≤ 35)” and the Dmax was at most 35%. The “Percent Degradation … 0.3” value (H2030 cells, 0.3 μM) is on record as “C (C ≤ 35)”. Also, the “Percent Degradation … (μM): 1” value (H2030 cells, 1 μM) is reported as “C (C ≤ 35)”.
Take `CCC(=O)N1CCN(c2nc(NCCC(=O)N(C)CCOCCOCCOCCOc3ccc4c(c3)CN(C3CCC(=O)NC3=O)C4=O)nc3c(F)c(-c4cc(O)cc5ccccc45)c(Cl)cc23)CC1` (stereo not shown) [compound 53, 3-((6-chloro-8-fluoro-7-(3-hydroxynaphthalen-1-yl)-4-(4-propionylpiperazin-1-yl)quinazolin-2-yl)amino)-N-(2-(2-(2-(2-((2-(2,6-dioxopiperidin-3-yl)-1-oxoisoindolin-5-yl)oxy)ethoxy)ethoxy)ethoxy)ethyl)-N-methylpropanamide]: the “Percent Degradation … 0.3” value (H2030 cells, 0.3 μM) is “C (C ≤ 35)”. Also, the “Percent Degradation … (μM): 1” value (H2030 cells, 1 μM) was “C (C ≤ 35)”. Further, the “Percent Degradation … (μM): 3” value (H2030 cells, 3 μM) was “C (C ≤ 35)”. Further, the Dmax (H2030 cells) was at most 35%.
`C=CC(=O)N1CCN(c2nc(O[C@H](C)CN3CCC(OCCOCCOCC(=O)N[C@H](C(=O)N4C[C@H](O)C[C@H]4C(=O)N[C@@H](C)c4ccc(-c5scnc5C)cc4)C(C)(C)C)CC3)nc3c2CCN(c2cc(O)cc4ccccc24)C3)CC1` [compound 407, (2S,4R)-1-((S)-2-(2-(2-(2-((1-((R)-2-((4-(4-acryloylpiperazin-1-yl)-7-(3-hydroxynaphthalen-1-yl)-5,6,7,8-tetrahydropyrido[3,4-d]pyrimidin-2-yl)oxy)propyl)piperidin-4-yl)oxy)ethoxy)ethoxy)acetamido)-3,3-dimethylbutanoyl)-4-hydroxy-N-((S)-1-(4-(4-methylthiazol-5-yl)phenyl)ethyl)pyrrolidine-2-carboxamide]: the “Percent Degradation at Indicated Concentration (μM)” value was “C (Percent Degradation: C ≤ 35)” (H2030 cells, 0.3 μM); “C (Percent Degradation: C ≤ 35)” (H2030 cells, 1 μM); “C (Percent Degradation: C ≤ 35)” (H2030 cells, 3 μM).
In the case of `C=CC(=O)N1CCN(c2nc(NCCC(=O)N(C)CCOCCOCCOCCOCCOc3cc(-c4scnc4C)ccc3CNC(=O)[C@@H]3C[C@@H](O)CN3C(=O)[C@@H](c3cc(C)no3)C(C)C)nc3c(F)c(-c4cc(O)cc5ccccc45)c(Cl)cc23)CC1` [compound 345, (2S,4R)-N-(2-((18-((4-(4-acryloylpiperazin-1-yl)-6-chloro-8-fluoro-7-(3-hydroxynaphthalen-1-yl)quinazolin-2-yl)amino)-15-methyl-16-oxo-3,6,9,12-tetraoxa-15-azaoctadecyl)oxy)-4-(4-methylthiazol-5-yl)benzyl)-4-hydroxy-1-((R)-3-methyl-2-(3-methylisoxazol-5-yl)butanoyl)pyrrolidine-2-carboxamide], the “Percent Degradation … 0.3” value (H2030 cells, 0.3 μM) is on record as “C (C ≤ 35)”. The “Percent Degradation … (μM): 1” value (H2030 cells, 1 μM) is listed as “C (C ≤ 35)”. The “Percent Degradation … (μM): 3” value (H2030 cells, 3 μM) is “C (C ≤ 35)”. The same compound showed a Dmax (H2030 cells) of at most 35%.
`C=CC(=O)N1CCN(c2nc(NCCC(=O)N(C)CCOCCOCCOCCOCC(=O)N[C@H](C(=O)N3C[C@H](O)C[C@H]3C(=O)N[C@@H](C)c3ccc(-c4scnc4C)cc3)C(C)(C)C)nc3c(F)c(-c4c(O)cccc4F)c(Cl)cc23)CC1` (atropisomer, axis not shown) [compound 211, (2S,4R)-1-((S)-21-(((S)-4-(4-acryloylpiperazin-1-yl)-6-chloro-8-fluoro-7-(2-fluoro-6-hydroxyphenyl)quinazolin-2-yl)amino)-2-(tert-butyl)-18-methyl-4,19-dioxo-6,9,12,15-tetraoxa-3,18-diazahenicosanoyl)-4-hydroxy-N-((S)-1-(4-(4-methylthiazol-5-yl)phenyl)ethyl)pyrrolidine-2-carboxamide]: the “Percent Degradation at Indicated Concentration (μM)” value (H2030, 3 μM) was “C (Percent Degradation: C ≤ 35)”.
`C=CC(=O)N1CCN(c2nc(NCCC(=O)N(C)CCOCCOCCOCCOCCNc3cccc4c3C(=O)N(C3CCC(=O)NC3=O)C4=O)nc3c(F)c(-c4c(O)cccc4F)c(Cl)cc23)CC1` [compound 116, 3-(((R)-4-(4-acryloylpiperazin-1-yl)-6-chloro-8-fluoro-7-(2-fluoro-6-hydroxyphenyl)quinazolin-2-yl)amino)-N-(14-((2-(2,6-dioxopiperidin-3-yl)-1,3-dioxoisoindolin-4-yl)amino)-3,6,9,12-tetraoxatetradecyl)-N-methylpropanamide] returned a Dmax of at most 35%. The “Percent Degradation at Indicated Concentration (μM)” value (H2030, 0.3 μM) is reported as “C (Percent Degradation: C ≤ 35)”. Besides, where the note is “H2030, 1 μM”, the “Percent Degradation at Indicated Concentration (μM)” value is “C (Percent Degradation: C ≤ 35)”. In addition, the “Percent Degradation at Indicated Concentration (μM)” value (H2030, 3 μM) is “C (Percent Degradation: C ≤ 35)”.
